Experiments:
human TLR7 or human TLR8 = assay type: cell-based; conditions: for agonistic activity (in words): primary TLR8/TLR7 reporter gene assays, receptor not given; for TLR8 versus TLR7 selectivity (in words): primary reporter gene screens
[1] = tested on: human peripheral blood mononuclear cells (hPBMC); test: Cytokine induction in human PBMCs; assay type: cell-based; conditions: human PBMCs stimulated 12 h
human TLR8 = molecular target: T1, human TLR8 (Homo sapiens, UniProt Q9NR97); test: Human TLR8-specific reporter gene assay; assay type: cell-based
T1 sequence (Q9NR97 27-1041): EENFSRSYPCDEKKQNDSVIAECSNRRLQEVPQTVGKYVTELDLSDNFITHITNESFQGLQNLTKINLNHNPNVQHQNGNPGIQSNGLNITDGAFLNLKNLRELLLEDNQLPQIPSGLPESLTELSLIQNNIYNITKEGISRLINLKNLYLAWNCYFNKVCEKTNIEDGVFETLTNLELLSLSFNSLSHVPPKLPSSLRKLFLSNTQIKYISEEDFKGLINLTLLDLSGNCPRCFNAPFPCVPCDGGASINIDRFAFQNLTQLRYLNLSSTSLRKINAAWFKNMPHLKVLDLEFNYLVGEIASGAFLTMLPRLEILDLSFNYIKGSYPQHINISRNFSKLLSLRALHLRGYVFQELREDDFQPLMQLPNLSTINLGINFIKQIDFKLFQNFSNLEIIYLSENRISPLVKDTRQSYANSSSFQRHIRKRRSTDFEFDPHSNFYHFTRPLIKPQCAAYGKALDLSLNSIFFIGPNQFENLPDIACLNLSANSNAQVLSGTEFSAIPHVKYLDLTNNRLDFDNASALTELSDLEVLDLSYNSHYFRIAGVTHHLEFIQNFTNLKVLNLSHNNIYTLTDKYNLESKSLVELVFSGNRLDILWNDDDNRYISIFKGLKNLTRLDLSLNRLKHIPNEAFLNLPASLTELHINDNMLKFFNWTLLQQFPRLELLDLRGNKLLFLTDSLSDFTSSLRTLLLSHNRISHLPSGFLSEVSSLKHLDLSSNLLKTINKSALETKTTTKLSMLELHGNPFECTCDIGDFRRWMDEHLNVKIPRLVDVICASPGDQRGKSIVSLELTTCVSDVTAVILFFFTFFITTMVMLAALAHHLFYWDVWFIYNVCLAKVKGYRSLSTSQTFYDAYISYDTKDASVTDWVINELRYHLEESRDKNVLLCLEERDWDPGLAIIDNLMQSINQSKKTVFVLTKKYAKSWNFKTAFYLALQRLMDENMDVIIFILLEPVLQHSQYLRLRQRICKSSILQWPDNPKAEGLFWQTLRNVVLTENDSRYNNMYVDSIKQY

human TLR7 = molecular target: T2, human TLR7 (Homo sapiens, UniProt Q9NYK1); test: Human TLR7-specific reporter gene assay; assay type: cell-based; conditions: EC50 in human TLR7-specific reporter gene assay; Inactive = EC50 >100 μM
T2 sequence (Q9NYK1 27-1049): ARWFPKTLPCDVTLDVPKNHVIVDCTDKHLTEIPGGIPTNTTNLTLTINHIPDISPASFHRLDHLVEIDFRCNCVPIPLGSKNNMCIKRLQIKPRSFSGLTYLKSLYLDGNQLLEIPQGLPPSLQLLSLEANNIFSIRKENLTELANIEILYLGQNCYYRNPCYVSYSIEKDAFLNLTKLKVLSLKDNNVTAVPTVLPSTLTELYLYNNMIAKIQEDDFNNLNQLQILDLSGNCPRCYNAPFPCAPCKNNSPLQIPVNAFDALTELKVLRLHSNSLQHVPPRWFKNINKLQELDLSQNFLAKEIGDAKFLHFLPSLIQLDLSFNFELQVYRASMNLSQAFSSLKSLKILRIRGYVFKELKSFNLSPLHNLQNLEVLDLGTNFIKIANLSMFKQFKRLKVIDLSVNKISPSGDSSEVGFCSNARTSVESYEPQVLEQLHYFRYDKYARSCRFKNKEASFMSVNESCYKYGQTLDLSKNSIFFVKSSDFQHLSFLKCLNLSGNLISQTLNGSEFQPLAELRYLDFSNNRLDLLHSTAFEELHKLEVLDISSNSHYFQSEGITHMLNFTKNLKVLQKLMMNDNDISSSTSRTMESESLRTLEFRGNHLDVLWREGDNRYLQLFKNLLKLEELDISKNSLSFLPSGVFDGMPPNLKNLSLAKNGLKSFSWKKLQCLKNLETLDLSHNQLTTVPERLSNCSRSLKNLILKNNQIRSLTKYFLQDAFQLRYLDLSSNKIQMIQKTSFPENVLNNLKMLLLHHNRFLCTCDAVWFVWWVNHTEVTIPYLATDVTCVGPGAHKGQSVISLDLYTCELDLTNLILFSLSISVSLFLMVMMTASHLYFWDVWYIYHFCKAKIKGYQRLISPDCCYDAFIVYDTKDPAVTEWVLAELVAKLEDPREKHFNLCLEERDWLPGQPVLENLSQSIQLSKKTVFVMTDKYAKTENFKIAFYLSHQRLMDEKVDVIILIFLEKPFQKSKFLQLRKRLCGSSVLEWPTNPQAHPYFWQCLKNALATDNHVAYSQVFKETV

[2] = tested on: New Zealand White rabbits; test: Rabbit immunization with bovine α-lactalbumin and antigen-specific ELISA; assay type: in vivo; conditions: compared with 8c

Compound	TLR8 versus TLR7 selectivity (in words) (human TLR7 or human TLR8)	TLR8-agonistic potency/activity (in words) (human TLR8; hTLR8 reporter gene assay)	Agonistic Activity (μM) TLR7 (human TLR7)	Agonistic Activity (μM) TLR8 (human TLR8; EC50 in human TLR8-specific reporter gene assay, Inactive = EC50 >100 μM)	agonistic activity (in words) (human TLR7 or human TLR8)	proinflammatory cytokine induction in hPBMCs (in words) [1]	consistency of adjuvanticity (confidence intervals of antibody titers) [2]
CC(C)Cc1nc2c(N)nc3ccccc3c2s1 [Compound 8j, 2-isobutylthiazolo[4,5-c]quinolin-4-amine]	substantially more TLR8-selective				well tolerated	inferior in their cytokine induction profiles	
CC[C@H](C)c1nc2c(N)nc3ccccc3c2s1 [Compound 8n, (S)-2-(sec-butyl)thiazolo[4,5-c]quinolin-4-amine]	substantially more TLR8-selective				well tolerated	inferior in their cytokine induction profiles	
CCCCc1nc2c(N)nc3ccccc3c2s1 [Compound 8d, 2-butylthiazolo[4,5-c]quinolin-4-amine]							greater consistency and uniformity

Second part, led by results:

TLR8 versus TLR7 selectivity (in words) (human TLR7 or human TLR8)	TLR8-agonistic potency/activity (in words) (human TLR8; hTLR8 reporter gene assay)	Agonistic Activity (μM) TLR7 (human TLR7)	Agonistic Activity (μM) TLR8 (human TLR8; EC50 in human TLR8-specific reporter gene assay, Inactive = EC50 >100 μM)	Compound	agonistic activity (in words) (human TLR7 or human TLR8)	proinflammatory cytokine induction in hPBMCs (in words) [1]	consistency of adjuvanticity (confidence intervals of antibody titers) [2]
	comparable to that of 8c			CCCc1nc2c(NC=O)nc3ccccc3c2s1 [Compound 15d, N-(2-propylthiazolo[4,5-c]quinolin-4-yl)formamide]	active	near-complete loss of activity	
substantially more TLR8-selective				CC[C@H](C)Cc1nc2c(N)nc3ccccc3c2s1 [Compound 8o, (S)-2-(2-methylbutyl)thiazolo[4,5-c]quinolin-4-amine]	active	inferior in their cytokine induction profiles	
		Inactive	Inactive	CCCCNc1nc2ccccc2c2sc(CCC)nc12 [Compound 15a, N-butyl-2-propylthiazolo[4,5-c]quinolin-4-amine]	devoid of any agonistic activity		

Reference: publication PMC3577938 (Organic & biomolecular chemistry, 2013)
